Key:
Assay in all cases: Protein kinase inhibition assay
Format in all cases: biochemical
PKBα(h) = PKBα(h) (Homo sapiens, UniProt P31749); settings: read-out: percent residual activity of PKBα(h)
Protocol: (§1) Certain compounds were tested for activity in protein kinase inhibition assays. All substrates were dissolved and diluted to working stocks in de-ionized water, apart from histone H1 (10× working stock in 20 mM MOPS pH 7.0), PDKtide (10× working stock in 50 mM Tris pH 7.0) ATF2 (which is typically stored at a 20× working stock in 50 mM Tris pH 7.5, 150 mM NaCl, 0.1 mM EGTA, 0.03% Brij-35, 50% glycerol, 1 mM benzamidine, 0.2 mM PMSF and 0.1% R-mercaptoethanol), KKLNRTLSFAEPG (SEQ ID NO:203) and RRRLSFAEPG (SEQ ID NO:204) (50 mM HEPES pH 7.4) and GGEEEEYFELVKKKK (SEQ ID NO:205) (20 mM MOPS pH 7.0). All kinases were pre-diluted to a 10× working concentration prior to addition into the assay. The composition of the dilution buffer for each kinase is detailed below.
(§2) In a final reaction volume of 25 μl, PKBα (h) (5-10 mU) is incubated with 8 mM MOPS pH 7.0, 0.2 mM EDTA, 30 μM GRPRTSSFAEGKK (SEQ ID NO:232), 10 mM MgAcetate and [gamma-33P-ATP] (specific activity approx. 500 cpm/pmol, concentration as required). The reaction is initiated by the addition of the MgATP mix. After incubation for 40 minutes at room temperature, the reaction is stopped by the addition of 5 μl of a 3% phosphoric acid solution. 10 μl of the reaction is then spotted onto a P30 filtermat and washed three times for 5 minutes in 75 mM phosphoric acid and once in methanol prior to drying and scintillation counting.

Fyn(h) = Fyn(h) (Homo sapiens, UniProt P06241); settings: read-out: percent residual activity of Fyn(h)
Protocol: as §1
(§3) In a final reaction volume of 25 μl, Fyn (h) (5-10 mU) is incubated with 50 mM Tris pH 7.5, 0.1 mM EGTA, 0.1 mM Na3VO4, 250 μM KVEKIGEGTYGVVYK (SEQ ID NO:220) (Cdc2 peptide), 10 mM MgAcetate and [gamma-33P-ATP] (specific activity approx. 500 cpm/pmol, concentration as required). The reaction is initiated by the addition of the MgATP mix. After incubation for 40 minutes at room temperature, the reaction is stopped by the addition of 5 μl of a 3% phosphoric acid solution. […]

PKCβII(h) = PKCβII(h) (Homo sapiens, UniProt P05771); settings: read-out: percent residual activity of PKCβII(h)
Protocol: as §1
In a final reaction volume of 25 μl, PKCβII (h) (5-10 mU) is incubated with 20 mM HEPES pH 7.4, 0.03% Triton X-100, […], 0.1 mg/ml phosphatidylserine, 10 μg/ml diacylglycerol, 0.1 mg/ml histone H1, 10 mM MgAcetate and [gamma-33P-ATP] (specific activity approx. 500 cpm/pmol, concentration as required). The reaction is initiated by the addition of the MgATP mix. After incubation for 40 minutes at room temperature, the reaction is stopped by the addition of 5 μl of a 3% phosphoric acid solution. […]

MSK1(h) = MSK1(h) (Homo sapiens, UniProt O75582); settings: read-out: percent residual activity of MSK1(h)
Protocol: as §1
as §2, with “MSK1” for “PKBα”, “NO:220),” for “NO:232),”

CSK(h) = CSK(h) (Homo sapiens, UniProt P41240); settings: read-out: percent residual activity of CSK(h)
Protocol: as §1
as §3, with “CSK” for “Fyn”, “0.1% R-mercaptoethanol, 0.1 mg/ml poly(Glu, Tyr) 4:1, 10 mM MnCl2,” for “250 μM KVEKIGEGTYGVVYK (SEQ ID NO:220) (Cdc2 peptide),”

Chain of Fyn(h) (P06241 whole entry): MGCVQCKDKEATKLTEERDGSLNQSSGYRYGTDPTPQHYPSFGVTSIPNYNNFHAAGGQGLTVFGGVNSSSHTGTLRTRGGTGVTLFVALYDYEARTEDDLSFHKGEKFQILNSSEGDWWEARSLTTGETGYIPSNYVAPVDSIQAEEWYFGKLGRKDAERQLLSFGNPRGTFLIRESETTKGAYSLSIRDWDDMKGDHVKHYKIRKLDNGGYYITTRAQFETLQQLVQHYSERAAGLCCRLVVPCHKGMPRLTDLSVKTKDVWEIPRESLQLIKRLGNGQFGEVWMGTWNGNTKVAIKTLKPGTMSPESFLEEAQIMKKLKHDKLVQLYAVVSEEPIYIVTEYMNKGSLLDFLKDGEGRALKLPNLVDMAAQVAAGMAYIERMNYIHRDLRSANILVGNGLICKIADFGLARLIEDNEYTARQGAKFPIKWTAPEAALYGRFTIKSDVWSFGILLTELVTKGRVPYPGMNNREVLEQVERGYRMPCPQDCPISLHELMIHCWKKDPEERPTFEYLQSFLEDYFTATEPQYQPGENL
Chain of PKBα(h) (P31749 whole entry): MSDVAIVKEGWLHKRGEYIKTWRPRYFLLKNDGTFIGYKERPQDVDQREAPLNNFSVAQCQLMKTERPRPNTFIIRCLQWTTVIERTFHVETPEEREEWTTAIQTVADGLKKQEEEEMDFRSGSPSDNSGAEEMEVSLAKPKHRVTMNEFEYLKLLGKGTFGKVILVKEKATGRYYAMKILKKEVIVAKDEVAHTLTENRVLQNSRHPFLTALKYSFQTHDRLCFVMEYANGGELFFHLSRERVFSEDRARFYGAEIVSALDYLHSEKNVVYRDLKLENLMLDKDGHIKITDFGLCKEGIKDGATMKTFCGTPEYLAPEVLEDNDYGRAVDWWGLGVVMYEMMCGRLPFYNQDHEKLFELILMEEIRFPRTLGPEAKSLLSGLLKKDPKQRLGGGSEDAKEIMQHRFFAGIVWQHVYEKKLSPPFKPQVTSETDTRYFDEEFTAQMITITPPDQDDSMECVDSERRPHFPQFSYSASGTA
Chain of MSK1(h) (O75582 whole entry): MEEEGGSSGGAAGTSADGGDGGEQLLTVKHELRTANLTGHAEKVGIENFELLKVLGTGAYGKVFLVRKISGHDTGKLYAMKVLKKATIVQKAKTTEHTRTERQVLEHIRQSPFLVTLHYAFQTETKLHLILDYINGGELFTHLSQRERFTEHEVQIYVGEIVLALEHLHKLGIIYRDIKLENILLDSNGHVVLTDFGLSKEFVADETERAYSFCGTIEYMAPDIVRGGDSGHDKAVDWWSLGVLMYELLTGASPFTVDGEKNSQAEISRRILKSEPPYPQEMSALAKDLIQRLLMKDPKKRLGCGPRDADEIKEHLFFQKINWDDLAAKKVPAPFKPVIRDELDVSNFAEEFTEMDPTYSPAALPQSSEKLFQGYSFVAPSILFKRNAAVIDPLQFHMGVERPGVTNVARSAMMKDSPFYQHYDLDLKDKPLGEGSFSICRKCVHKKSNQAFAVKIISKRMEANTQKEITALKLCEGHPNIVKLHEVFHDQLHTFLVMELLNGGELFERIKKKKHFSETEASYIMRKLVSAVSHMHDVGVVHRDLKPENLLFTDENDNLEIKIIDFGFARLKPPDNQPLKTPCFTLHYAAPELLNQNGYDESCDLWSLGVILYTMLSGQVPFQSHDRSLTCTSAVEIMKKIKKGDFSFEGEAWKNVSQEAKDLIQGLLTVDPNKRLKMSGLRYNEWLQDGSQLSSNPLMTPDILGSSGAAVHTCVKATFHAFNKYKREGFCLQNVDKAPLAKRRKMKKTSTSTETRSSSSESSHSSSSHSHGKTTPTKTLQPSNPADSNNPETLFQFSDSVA
Chain of PKCβII(h) (P05771 1-673 isoform P05771-2): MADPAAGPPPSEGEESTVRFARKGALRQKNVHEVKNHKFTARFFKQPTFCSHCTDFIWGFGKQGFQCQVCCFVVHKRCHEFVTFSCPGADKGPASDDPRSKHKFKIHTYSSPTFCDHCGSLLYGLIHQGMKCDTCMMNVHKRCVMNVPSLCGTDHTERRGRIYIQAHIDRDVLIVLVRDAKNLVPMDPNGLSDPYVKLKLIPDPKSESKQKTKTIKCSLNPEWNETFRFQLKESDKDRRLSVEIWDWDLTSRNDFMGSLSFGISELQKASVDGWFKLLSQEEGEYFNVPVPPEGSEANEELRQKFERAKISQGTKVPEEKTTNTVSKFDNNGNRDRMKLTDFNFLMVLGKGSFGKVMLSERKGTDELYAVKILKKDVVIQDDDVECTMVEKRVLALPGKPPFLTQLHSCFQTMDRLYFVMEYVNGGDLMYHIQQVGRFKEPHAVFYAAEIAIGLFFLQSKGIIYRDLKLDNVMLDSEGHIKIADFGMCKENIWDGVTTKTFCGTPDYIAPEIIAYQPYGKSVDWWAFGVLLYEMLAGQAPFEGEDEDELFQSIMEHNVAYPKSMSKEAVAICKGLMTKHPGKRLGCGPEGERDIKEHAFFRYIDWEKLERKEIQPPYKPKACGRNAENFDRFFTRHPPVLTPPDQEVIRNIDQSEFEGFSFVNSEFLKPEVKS

Row | remaining activity at 2.5 µM (PKBα(h)) [%] | remaining activity at 2.5 µM (Fyn(h)) [%] | remaining activity at 2.5 µM (PKCβII(h)) [%] | remaining activity at 2.5 µM (MSK1(h)) [%] | remaining activity at 2.5 µM (CSK(h)) [%] | SMILES
1 | 91 | 97 | 94 | 61 | 116 | CN1CCCC1CCNC(=O)c1cn2c3c(c(N4CCC(c5cnccn5)C4)c(F)cc3c1=O)Oc1cc3ccccc3cc1-2 (stereo not shown) [Compound A-1]
2 | 103 | 85 | 99 | 99 | 92 | CC(=O)N1CCN(c2ccc3c(=O)c(C(=O)NCCN4CCCC4)c4n(C)c5ccccc5n4c3n2)CC1 [Compound B-1]
